Reference: paper PMC7467771, “Lipophilic Arginine Esters: The Gateway to Preservatives without Side Effects” (Molecular Pharmaceutics, 2020)

Tested on: Caco-2 cell membrane
Assay: fluorescence anisotropy (DPH), membrane fluidity
Type: cell-based
Conditions: DPH-labeled Caco-2 cells
Method: To evaluate membrane fluidity by fluorescence spectroscopy, a method described by Aricha et al. was adapted.[17] Caco-2 cells were labeled with fluorescent probe DPH (1,6-diphenyl-1,3,5-hexatriene). For this, a 1 mM solution of DPH was prepared in acetone. A Caco-2 cell monolayer in a 15 mL cell flask after washing with sterile PBS was trypsinized and resuspended in 10 mM HBS (pH 7.4) at a concentration of 2 × 10^5 cells mL^–1. Then a 1 mM DPH solution (10 μL) was added to a Caco-2 cell suspension (5 mL) and kept for incubation at 37 °C in the dark. After 1 h, cells were centrifuged at 588 rpm for 3 min, and solvent was removed to get rid of the free probe. Cells were resuspended in the same volume of HBS. Samples of Arg-surfactants were prepared in HBS in concentrations of 2000, 1000, and 500 μg mL^–1. Then each sample solution was mixed with a DPH-labeled cell suspension in equal volumes and incubated at room temperature in the dark. HBS mixed in an equal volume with the DPH-labeled cell suspension was used as a control. At specific time points, fluorescence polarization data were obtained using an excitation wavelength of 350 nm and an emission wavelength of 420 nm, and anisotropy was calculated using the following equation: [drawing 5] where I∥ and I⊥ are the fluorescence intensities parallel and perpendicular to the direction of the excitation light beam.

CCCCCCCCC=CCCCCCCCCOC(=O)[C@@H](N)CCCNC(=N)N.O=C(O)C(F)(F)F [Arg-OL, Octadec-9-en-1-yl Argininate Trifluoroacetate]
decrease in the anisotropy value as compared to the control (within 2 h): > 30%

CCCCCCCCCCCCC(CCCCCCCCCC)COC(=O)[C@@H](N)CCCNC(=N)N.O=C(O)C(F)(F)F (some centres unmarked) [Arg-DT, 2-Decyltetradecyl Argininate Trifluoroacetate]
changes in anisotropy (< 1000 μg mL^–1): not significant
